Laboratory results taken from ChEMBL document CHEMBL5291721, “A preclinical secondary pharmacology resource illuminates target-adverse drug reaction associations of marketed drugs” (Nat Commun, 2023).

Tests used:
[1] = biological target: Beta-2 adrenergic receptor (Homo sapiens, UniProt P07550)
[2] = biological target: Gamma-aminobutyric acid receptor subunit alpha-1 (Rattus norvegicus, UniProt P62813); type: functional
[3] = biological target: T1, Alpha-2B adrenergic receptor (Homo sapiens, UniProt P18089)
T1 sequence (P18089 whole entry): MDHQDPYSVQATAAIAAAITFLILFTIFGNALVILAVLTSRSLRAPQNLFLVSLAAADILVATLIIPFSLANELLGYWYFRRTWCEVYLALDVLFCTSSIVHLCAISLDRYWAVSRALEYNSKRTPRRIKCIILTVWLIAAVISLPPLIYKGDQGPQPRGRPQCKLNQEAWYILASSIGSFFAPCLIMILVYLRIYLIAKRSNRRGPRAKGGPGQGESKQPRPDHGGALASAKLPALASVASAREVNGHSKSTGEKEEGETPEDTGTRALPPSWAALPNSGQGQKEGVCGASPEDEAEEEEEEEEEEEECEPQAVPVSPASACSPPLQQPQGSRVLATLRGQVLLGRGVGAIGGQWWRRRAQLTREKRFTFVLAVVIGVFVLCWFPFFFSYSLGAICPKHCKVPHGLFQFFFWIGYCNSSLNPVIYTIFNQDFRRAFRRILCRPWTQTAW

[4] = biological target: T2, Amine oxidase [flavin-containing] A (Homo sapiens, UniProt P21397); type: functional
T2 sequence (P21397 whole entry): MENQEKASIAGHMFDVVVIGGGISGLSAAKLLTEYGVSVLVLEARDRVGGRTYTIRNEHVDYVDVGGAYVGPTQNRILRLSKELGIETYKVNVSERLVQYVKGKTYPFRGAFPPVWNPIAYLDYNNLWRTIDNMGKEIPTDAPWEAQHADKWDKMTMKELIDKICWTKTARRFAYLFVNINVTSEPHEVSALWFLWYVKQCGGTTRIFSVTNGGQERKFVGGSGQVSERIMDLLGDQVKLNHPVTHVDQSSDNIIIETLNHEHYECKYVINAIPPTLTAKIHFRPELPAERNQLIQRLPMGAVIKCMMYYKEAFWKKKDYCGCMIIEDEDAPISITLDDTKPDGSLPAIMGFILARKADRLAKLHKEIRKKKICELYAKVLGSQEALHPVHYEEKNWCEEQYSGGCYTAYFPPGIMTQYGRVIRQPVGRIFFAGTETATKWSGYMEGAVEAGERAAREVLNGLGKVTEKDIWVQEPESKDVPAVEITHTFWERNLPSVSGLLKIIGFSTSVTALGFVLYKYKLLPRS

Mu-type opioid receptor [5] = biological target: T3, Mu-type opioid receptor (Homo sapiens, UniProt P35372); assay: biochemical; type: functional
T3 sequence (P35372 whole entry): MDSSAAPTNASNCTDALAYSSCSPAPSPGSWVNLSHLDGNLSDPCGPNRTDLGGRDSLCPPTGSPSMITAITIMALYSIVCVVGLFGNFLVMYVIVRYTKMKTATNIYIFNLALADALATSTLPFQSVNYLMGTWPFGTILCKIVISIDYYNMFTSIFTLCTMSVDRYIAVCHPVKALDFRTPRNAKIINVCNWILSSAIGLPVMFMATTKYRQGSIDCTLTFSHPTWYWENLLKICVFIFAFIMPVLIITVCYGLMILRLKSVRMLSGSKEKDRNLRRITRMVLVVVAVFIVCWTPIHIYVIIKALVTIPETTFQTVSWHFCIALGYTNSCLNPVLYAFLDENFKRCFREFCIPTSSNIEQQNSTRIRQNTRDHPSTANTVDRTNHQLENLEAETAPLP

D(1A) dopamine receptor [6] = biological target: T4, D(1A) dopamine receptor (Homo sapiens, UniProt P21728); type: functional, cell-based
T4 sequence (P21728 whole entry): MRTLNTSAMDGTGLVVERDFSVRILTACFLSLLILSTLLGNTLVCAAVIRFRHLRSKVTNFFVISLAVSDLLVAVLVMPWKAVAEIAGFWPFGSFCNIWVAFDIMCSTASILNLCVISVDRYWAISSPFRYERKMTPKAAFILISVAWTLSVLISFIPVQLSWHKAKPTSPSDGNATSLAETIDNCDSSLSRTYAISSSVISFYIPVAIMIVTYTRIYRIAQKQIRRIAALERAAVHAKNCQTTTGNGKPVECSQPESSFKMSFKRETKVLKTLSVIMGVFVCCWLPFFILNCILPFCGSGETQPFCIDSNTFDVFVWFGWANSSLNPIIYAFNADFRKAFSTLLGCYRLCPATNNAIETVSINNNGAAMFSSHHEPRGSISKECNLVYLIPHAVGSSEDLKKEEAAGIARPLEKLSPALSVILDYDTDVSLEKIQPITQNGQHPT

[7] = biological target: 5-hydroxytryptamine receptor 2A (Homo sapiens, UniProt P28223); type: functional, cell-based
Chain of 5-hydroxytryptamine receptor 2A (P28223 whole entry): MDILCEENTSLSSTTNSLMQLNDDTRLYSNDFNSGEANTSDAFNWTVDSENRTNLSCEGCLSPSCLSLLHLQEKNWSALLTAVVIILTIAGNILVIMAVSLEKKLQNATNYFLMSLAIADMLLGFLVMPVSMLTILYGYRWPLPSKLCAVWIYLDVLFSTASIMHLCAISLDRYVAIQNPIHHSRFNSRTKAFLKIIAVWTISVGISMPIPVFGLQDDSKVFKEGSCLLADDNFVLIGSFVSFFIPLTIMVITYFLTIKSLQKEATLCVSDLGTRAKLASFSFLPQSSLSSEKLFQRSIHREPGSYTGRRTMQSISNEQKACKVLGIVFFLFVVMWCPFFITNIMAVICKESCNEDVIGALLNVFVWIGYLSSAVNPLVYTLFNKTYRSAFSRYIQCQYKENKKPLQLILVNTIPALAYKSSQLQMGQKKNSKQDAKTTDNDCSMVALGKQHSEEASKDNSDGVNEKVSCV

Histamine H3 receptor = Histamine H3 receptor (Homo sapiens, UniProt Q9Y5N1)
Chain of Histamine H3 receptor (Q9Y5N1 whole entry): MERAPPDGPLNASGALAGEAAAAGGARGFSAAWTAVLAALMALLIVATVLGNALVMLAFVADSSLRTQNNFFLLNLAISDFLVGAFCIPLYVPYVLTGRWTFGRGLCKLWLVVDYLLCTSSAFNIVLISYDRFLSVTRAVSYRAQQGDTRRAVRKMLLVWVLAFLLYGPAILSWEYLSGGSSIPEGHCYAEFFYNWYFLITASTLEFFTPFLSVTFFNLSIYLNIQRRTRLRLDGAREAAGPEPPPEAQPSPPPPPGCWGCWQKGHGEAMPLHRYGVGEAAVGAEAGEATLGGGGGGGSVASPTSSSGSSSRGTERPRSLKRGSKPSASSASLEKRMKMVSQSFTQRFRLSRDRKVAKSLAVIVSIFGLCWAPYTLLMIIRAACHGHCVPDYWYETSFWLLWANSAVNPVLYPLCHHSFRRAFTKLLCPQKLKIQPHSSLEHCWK

D(1A) dopamine receptor [8] = biological target: T4, D(1A) dopamine receptor
[9] = biological target: Prostaglandin G/H synthase 1 (Homo sapiens, UniProt P23219); type: functional
Chain of Prostaglandin G/H synthase 1 (P23219 whole entry): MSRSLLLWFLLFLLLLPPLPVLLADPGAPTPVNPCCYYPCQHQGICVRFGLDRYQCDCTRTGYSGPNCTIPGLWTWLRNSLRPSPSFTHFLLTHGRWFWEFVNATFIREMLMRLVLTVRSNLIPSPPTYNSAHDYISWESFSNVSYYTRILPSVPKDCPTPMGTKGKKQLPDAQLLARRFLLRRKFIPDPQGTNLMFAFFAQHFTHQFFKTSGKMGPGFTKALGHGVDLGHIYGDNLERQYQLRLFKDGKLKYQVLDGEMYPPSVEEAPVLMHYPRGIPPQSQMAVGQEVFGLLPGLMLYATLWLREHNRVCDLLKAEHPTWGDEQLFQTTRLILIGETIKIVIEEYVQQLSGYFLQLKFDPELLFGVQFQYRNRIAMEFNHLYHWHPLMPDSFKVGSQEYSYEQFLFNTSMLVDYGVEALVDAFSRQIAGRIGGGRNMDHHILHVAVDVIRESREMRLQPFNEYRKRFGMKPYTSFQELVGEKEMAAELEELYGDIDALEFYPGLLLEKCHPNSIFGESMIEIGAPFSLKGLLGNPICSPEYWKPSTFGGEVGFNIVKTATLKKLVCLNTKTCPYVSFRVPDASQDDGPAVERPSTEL

[10] = biological target: 3',5'-cyclic-AMP phosphodiesterase 4A (Homo sapiens, UniProt P27815); type: functional
Chain of 3',5'-cyclic-AMP phosphodiesterase 4A (P27815 whole entry): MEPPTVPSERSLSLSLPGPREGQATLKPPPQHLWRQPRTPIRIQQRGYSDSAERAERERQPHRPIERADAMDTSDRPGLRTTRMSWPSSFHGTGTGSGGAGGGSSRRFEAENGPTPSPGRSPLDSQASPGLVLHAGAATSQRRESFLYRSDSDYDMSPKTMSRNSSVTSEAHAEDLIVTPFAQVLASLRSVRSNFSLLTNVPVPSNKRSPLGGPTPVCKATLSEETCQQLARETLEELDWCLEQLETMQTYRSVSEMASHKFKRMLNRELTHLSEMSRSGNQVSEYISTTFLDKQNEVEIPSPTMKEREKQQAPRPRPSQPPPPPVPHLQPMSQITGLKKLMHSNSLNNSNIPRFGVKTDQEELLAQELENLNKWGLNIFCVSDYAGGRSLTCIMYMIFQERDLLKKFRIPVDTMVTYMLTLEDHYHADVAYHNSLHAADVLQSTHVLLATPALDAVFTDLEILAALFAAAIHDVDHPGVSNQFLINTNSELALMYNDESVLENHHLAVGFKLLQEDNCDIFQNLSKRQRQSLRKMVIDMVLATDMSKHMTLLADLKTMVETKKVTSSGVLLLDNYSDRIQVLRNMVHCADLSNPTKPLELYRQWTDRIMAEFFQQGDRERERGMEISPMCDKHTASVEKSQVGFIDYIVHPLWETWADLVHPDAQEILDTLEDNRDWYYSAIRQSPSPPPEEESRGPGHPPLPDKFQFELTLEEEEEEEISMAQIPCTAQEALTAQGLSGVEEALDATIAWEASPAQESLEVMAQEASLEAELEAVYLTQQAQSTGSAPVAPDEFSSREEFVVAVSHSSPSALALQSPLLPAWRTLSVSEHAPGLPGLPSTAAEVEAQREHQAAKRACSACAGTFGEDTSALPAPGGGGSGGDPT

[11] = biological target: Vascular endothelial growth factor receptor 2 (Homo sapiens, UniProt P35968); type: functional
[12] = biological target: T5, Muscarinic acetylcholine receptor M2 (Homo sapiens, UniProt P08172)
T5 sequence (P08172 whole entry): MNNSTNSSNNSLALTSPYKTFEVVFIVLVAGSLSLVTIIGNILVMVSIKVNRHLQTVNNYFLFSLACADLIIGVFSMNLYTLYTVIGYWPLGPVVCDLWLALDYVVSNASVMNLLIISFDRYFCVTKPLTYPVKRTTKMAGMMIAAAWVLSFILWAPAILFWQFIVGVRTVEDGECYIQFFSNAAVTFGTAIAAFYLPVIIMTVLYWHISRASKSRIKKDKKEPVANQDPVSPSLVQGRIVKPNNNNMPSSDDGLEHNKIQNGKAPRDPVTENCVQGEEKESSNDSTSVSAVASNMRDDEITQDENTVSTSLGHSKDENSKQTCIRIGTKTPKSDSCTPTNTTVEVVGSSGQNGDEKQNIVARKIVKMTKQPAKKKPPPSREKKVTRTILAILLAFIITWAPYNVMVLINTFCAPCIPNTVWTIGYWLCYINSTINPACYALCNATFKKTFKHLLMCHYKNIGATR

Thromboxane A2 receptor = biological target: T6, Thromboxane A2 receptor (Homo sapiens, UniProt P21731); type: functional, cell-based
T6 sequence (P21731 whole entry): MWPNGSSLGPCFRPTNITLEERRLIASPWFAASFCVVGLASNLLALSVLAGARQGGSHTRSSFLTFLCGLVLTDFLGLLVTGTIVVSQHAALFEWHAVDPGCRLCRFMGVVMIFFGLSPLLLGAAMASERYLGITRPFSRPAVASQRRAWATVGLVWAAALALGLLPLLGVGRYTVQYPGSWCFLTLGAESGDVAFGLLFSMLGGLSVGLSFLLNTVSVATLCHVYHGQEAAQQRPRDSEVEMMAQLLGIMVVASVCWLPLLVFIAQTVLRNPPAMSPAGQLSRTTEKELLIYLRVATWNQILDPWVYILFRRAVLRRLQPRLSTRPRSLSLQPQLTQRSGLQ

Mu-type opioid receptor [13] = biological target: T3, Mu-type opioid receptor
D(3) dopamine receptor = D(3) dopamine receptor (Homo sapiens, UniProt P35462)
Chain of D(3) dopamine receptor (P35462 whole entry): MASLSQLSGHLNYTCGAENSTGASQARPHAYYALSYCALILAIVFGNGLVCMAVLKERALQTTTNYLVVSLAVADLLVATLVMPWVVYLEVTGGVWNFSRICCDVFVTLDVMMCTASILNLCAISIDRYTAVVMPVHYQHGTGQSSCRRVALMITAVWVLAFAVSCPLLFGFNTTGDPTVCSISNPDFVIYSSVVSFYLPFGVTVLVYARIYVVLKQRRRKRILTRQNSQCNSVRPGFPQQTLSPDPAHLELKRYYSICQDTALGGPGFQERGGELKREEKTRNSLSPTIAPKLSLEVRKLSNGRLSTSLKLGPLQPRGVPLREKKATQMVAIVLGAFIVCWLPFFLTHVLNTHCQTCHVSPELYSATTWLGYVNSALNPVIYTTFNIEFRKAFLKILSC

Measured: AC50
Further: assay procedure not described here.

Chain of Beta-2 adrenergic receptor (P07550 whole entry): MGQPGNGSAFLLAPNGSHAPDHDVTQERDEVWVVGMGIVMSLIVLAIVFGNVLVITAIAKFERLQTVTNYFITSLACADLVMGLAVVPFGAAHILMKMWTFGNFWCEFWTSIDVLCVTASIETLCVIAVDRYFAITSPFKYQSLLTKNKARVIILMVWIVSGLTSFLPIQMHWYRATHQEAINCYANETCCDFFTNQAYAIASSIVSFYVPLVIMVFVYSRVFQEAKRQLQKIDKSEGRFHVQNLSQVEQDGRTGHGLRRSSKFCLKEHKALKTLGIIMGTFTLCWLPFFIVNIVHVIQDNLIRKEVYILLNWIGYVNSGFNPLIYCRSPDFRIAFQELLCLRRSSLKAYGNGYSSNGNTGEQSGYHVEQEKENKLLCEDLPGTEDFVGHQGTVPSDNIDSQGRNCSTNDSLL
Chain of Gamma-aminobutyric acid receptor subunit alpha-1 (P62813 whole entry): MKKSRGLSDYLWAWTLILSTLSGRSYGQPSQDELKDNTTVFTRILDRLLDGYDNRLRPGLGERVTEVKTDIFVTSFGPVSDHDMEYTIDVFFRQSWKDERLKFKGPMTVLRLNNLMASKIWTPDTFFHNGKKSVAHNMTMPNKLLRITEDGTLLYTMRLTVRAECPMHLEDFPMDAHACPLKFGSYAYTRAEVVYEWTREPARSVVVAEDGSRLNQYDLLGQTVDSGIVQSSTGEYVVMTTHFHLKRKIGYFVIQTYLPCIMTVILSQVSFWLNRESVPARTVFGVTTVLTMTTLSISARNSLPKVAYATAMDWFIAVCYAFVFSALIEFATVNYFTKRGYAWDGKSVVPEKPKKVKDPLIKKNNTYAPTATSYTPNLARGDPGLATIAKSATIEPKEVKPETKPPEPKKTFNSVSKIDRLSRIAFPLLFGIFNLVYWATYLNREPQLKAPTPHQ

CCN(CC)C(=O)C1(c2ccccc2)CC1CN (stereo unspecified)
> 30 µM: [1] | [2] | [3] | [4] | Mu-type opioid receptor [5] | D(1A) dopamine receptor [6] | [7] | Histamine H3 receptor

CN(C)C(=O)Oc1cccc([N+](C)(C)C)c1 [NEOSTIGMINE]
> 30 µM: D(1A) dopamine receptor [8] | [9] | [10] | [11] | [12] | Thromboxane A2 receptor | Mu-type opioid receptor [13] | D(3) dopamine receptor
